Results as given in patent US10294207B2, “Pyrazole derivatives as TNIK, IKKϵ and TBK1 inhibitor and pharmaceutical composition comprising same” (GREEN CROSS CORPORATION, priority 2015, dated 2019).

How the values were obtained:
TNIK = molecular target: T1, TNIK (Homo sapiens, UniProt Q9UKE5); assay: TNIK inhibition, ADP-Glo Kinase Assay; assay type: biochemical; conditions: luminometer
T1 construct: purchased Promega V4158
Protocol: Inhibition activities on TNIK, IKKε and TBK1 were evaluated using the compounds of Examples 1 to 254.
The inhibition activities on TNIK, IKKε and TBK1 were measured by a luminometer, TNIK/IKKε/TBK1 Kinase Enzyme System (Promega, Ca# V4158; Invitrogen, PR8031B, Promega, Ca# V3991) and ADP-Glo Kinase Assay using ADP-Glo™ Kinase Analysis Kit (Promega, Ca# V9101) and a kinase reaction buffer [40 mM Tris(pH 7.5), 20 mM MgCl2, 0.1 mg/mL BSA] in accordance with the manufacturer's protocol.

TBK1 = molecular target: T2, TBK1 (Homo sapiens, UniProt Q9UHD2); assay: TBK1 inhibition, ADP-Glo Kinase Assay; assay type: biochemical; conditions: luminometer
T2 construct: purchased Promega V3991
T2 sequence (Q9UHD2 1-729): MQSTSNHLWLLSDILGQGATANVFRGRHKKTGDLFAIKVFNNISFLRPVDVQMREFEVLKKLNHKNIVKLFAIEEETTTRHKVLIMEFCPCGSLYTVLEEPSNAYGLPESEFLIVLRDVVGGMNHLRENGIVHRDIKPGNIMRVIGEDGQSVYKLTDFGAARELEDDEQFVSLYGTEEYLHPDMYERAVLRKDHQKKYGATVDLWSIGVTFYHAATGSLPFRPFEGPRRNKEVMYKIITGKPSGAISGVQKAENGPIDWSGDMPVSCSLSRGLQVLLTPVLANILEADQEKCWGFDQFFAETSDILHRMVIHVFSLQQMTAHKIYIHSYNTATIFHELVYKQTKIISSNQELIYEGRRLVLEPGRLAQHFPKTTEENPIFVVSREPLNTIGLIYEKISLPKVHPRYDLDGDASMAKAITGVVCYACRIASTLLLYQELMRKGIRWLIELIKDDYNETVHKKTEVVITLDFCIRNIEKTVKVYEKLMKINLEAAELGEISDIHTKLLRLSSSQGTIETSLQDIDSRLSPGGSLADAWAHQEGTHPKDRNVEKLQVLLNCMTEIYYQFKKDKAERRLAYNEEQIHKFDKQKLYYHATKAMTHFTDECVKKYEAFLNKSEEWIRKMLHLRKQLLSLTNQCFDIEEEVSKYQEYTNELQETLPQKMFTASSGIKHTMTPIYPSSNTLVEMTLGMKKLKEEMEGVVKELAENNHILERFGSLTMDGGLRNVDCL
How it was run: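 ADP-Glo luminescence reported ADP produced by each kinase, following the kit protocol. Reactions used commercial kinase enzyme systems in buffer of 40 mM Tris (pH 7.5), 20 mM MgCl2 and 0.1 mg/mL BSA.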

T1 sequence (Q9UKE5 1-367 limits assumed): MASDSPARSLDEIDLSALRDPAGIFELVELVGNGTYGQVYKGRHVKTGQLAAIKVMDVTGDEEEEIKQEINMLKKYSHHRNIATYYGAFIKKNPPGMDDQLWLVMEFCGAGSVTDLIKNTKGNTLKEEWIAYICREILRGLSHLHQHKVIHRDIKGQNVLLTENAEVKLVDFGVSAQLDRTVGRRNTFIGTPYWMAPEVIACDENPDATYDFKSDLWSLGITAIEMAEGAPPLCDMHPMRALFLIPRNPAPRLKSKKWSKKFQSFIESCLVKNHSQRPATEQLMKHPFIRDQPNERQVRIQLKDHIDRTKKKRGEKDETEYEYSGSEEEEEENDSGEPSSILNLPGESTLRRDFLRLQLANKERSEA

Structure (SMILES) | IC50 (TNIK) [µM] | IC50 (TBK1) [µM]
Cc1cnc(-c2cc3[nH]nc(NC(=O)c4ccccc4)c3s2)o1 [Example 220, N-(5-(5-methyloxazol-2-yl)-1H-thieno[3,2-c]pyrazol-3-yl)benzamide] | 0.36 | 1.2
Cc1cnc(-c2cc3[nH]nc(NC(=O)c4ccc(F)cc4)c3s2)o1 [Example 221, 4-fluoro-N-(5-(5-methyloxazol-2-yl)-1H-thieno[3,2-c]pyrazol-3-yl)benzamide] | 0.65 | 1.7
COc1ccc(C(=O)Nc2n[nH]c3cc(-c4ncc(C)o4)sc23)cc1 [Example 222, 4-methoxy-N-(5-(5-methyloxazol-2-yl)-1H-thieno[3,2-c]pyrazol-3-yl)benzamide] | 0.31 | 0.35
Cc1cnc(-c2cc3[nH]nc(NC(=O)c4cccc(F)c4)c3s2)o1 [Example 230, 3-fluoro-N-(5-(5-methyloxazol-2-yl)-1H-thieno[3,2-c]pyrazol-3-yl)benzamide] | 0.66 | 1.7
COC(=O)c1cc2[nH]nc(-c3ccc(OC)cc3)c2s1 [Example 231, methyl 3-(4-methoxyphenyl)-1H-thieno[3,2-c]pyrazole-5-carboxylate] | 0.54 | > 10
CCNC(=O)c1cc2[nH]nc(-c3ccc(OC)cc3)c2s1 [Example 232, N-ethyl-3-(4-methoxyphenyl)-1H-thieno[3,2-c]pyrazole-5-carboxamide] | 1.95 | > 10
COc1ccc(-c2n[nH]c3cc(C(=O)NC(C)C)sc23)cc1 [Example 233, N-isopropyl-3-(4-methoxyphenyl)-1H-thieno[3,2-c]pyrazole-5-carboxamide] | 2.86 | > 10
COc1ccc(-c2n[nH]c3cc(-c4ncc(C)o4)sc23)cc1 [Example 235, 2-(3-(4-methoxyphenyl)-1H-thieno[3,2-c]pyrazol-5-yl)-5-methyloxazole] | 0.34 | > 10
COC(=O)c1cc2[nH]nc(-c3ccccc3)c2s1 [Example 236, methyl 3-phenyl-1H-thieno[3,2-c]pyrazole-5-carboxylate] | 1.27 | > 10
COC(=O)c1cc2[nH]nc(-c3ccc(F)cc3)c2s1 [Example 239, methyl 3-(4-fluorophenyl)-1H-thieno[3,2-c]pyrazole-5-carboxylate] | 0.86 | > 10
CCNC(=O)c1cc2[nH]nc(-c3ccc(F)cc3)c2s1 [Example 240, N-ethyl-3-(4-fluorophenyl)-1H-thieno[3,2-c]pyrazole-5-carboxamide] | 2.85 | > 10
CCNC(=O)c1cc2[nH]nc(-c3ccc(N4CCOCC4)cc3)c2s1 [Example 241, N-ethyl-3-(4-morpholinophenyl)-1H-thieno[3,2-c]pyrazole-5-carboxamide] | 1.09 | > 10
O=C(NCCN1CCOCC1)c1cc2[nH]nc(-c3ccc(F)cc3)c2s1 [Example 242, 3-(4-fluorophenyl)-N-(2-morpholinoethyl)-1H-thieno[3,2-c]pyrazole-5-carboxamide] | > 20 | > 10
O=C(c1cc2[nH]nc(-c3ccc(N4CCOCC4)cc3)c2s1)N1CCCC1 [Example 248, (3-(4-morpholinophenyl)-1H-thieno[3,2-c]pyrazol-5-yl)(pyrrolidin-1-yl)methanone] | 8.09 | 
COC(=O)c1cc2[nH]nc(-c3ccc(OCCN4CCOCC4)cc3)c2s1 [Example 249, methyl 3-(4-(2-morpholinoethoxy)phenyl)-1H-thieno[3,2-c]pyrazole-5-carboxylate] | 0.47 | 
CCc1cnc(-c2cc3[nH]nc(NC(=O)c4ccc(N5CCOCC5)cc4)c3s2)s1 [Example 252, N-(5-(5-ethylthiazol-2-yl)-1H-thieno[3,2-c]pyrazol-3-yl)-4-morpholinobenzamide] | 0.41 | 1.3

Stronger by IC50 (TNIK), values ahead:

IC50 (TNIK) [µM] | IC50 (TBK1) [µM] | Structure (SMILES)
0.13 | 0.33 | Cc1cnc(-c2cc3[nH]nc(NC(=O)c4ccc(N5CCOCC5)cc4)c3s2)s1 [Example 219, N-(5-(5-methylthiazol-2-yl)-1H-thieno[3,2-c]pyrazol-3-yl)-4-morpholinobenzamide]
0.11 | 0.094 | Cc1cnc(-c2cc3[nH]nc(NC(=O)c4ccc(N(C)C)cc4)c3s2)o1 [Example 223, 4-(dimethylamino)-N-(5-(5-methyloxazol-2-yl)-1H-thieno[3,2-c]pyrazol-3-yl)benzamide]
0.15 | 0.12 | Cc1cnc(-c2cc3[nH]nc(NC(=O)c4ccc(NCCN5CCCC5)cc4)c3s2)o1 [Example 226, N-(5-(5-methyloxazol-2-yl)-1H-thieno[3,2-c]pyrazol-3-yl)-4-((2-(pyrrolidin-1-yl)ethyl)amino)benzamide]
0.085 | 0.12 | Cc1cnc(-c2cc3[nH]nc(NC(=O)c4ccc(NCCN5CCOCC5)cc4)c3s2)o1 [Example 227, N-(5-(5-methyloxazol-2-yl)-1H-thieno[3,2-c]pyrazol-3-yl)-4-((2-morpholinoethyl)amino)benzamide]
0.11 | 0.12 | Cc1cnc(-c2cc3[nH]nc(NC(=O)c4ccc(NCCO)cc4)c3s2)o1 [Example 228, 4-((2-hydroxyethyl)amino)-N-(5-(5-methyloxazol-2-yl)-1H-thieno[3,2-c]pyrazol-3-yl)benzamide]
0.15 | 0.14 | COCCNc1ccc(C(=O)Nc2n[nH]c3cc(-c4ncc(C)o4)sc23)cc1 [Example 229, 4-((2-methoxyethyl)amino)-N-(5-(5-methyloxazol-2-yl)-1H-thieno[3,2-c]pyrazol-3-yl)benzamide]
0.15 | > 10 | Cc1cnc(-c2cc3[nH]nc(-c4ccc(N5CCOCC5)cc4)c3s2)o1 [Example 243, 4-(4-(5-(5-methyloxazol-2-yl)-1H-thieno[3,2-c]pyrazol-3-yl)phenyl)morpholine]
0.11 |  | Cc1cnc(-c2cc3[nH]nc(-c4ccc(OCCN5CCOCC5)cc4)c3s2)o1 [Example 250, 4-(2-(4-(5-(5-methyloxazol-2-yl)-1H-thieno[3,2-c]pyrazol-3-yl)phenoxy)ethyl)morpholine]
0.25 | 1.4 | Cc1cnc(-c2cc3[nH]nc(NC(=O)c4ccc(N(C)C)cc4)c3s2)s1 [Example 251, 4-(dimethylamino)-N-(5-(5-methylthiazol-2-yl)-1H-thieno[3,2-c]pyrazol-3-yl)benzamide]
0.28 | 0.62 | Cc1cnc(-c2cc3[nH]nc(NC(=O)c4ccc(NCCN5CCCCC5)cc4)c3s2)s1 [Example 253, N-(5-(5-methylthiazol-2-yl)-1H-thieno[3,2-c]pyrazol-3-yl)-4-((2-(piperidin-1-yl)ethyl)amino)benzamide]
0.3 | > 10 | COC(=O)c1cc2[nH]nc(-c3ccc(N4CCOCC4)cc3)c2s1 [Example 254, methyl 3-(4-morpholinophenyl)-1H-thieno[3,2-c]pyrazole-5-carboxylate]
